In patent US20260184663A1, “INDENE COMPOUNDS, PHARMACEUTICAL COMPOSITIONS THEREOF, AND THEIR THERAPEUTIC APPLICATIONS” (NucMito Pharmaceuticals co. Ltd., priority 2022, published 2026) one finds inhibition data, which are given here for four compounds.

Where only a bound is given, the exact number is not on record here.

Common to all, as to type: cell-based
The subject of test [1] is MDA-MB-231 (breast cancer). Description: Antiproliferative activity (CCK-8 cell viability), MDA-MB-231. The following applies: Homo sapiens, 72 h, read-out: Antiproliferative activity in cancerous cells, MDA-MB-231 (inhibition of cell growth); for inhibition at 3.3 µM: Compound concentration: 3.3 μM; for inhibition at 10 µM: Compound concentration: 10 μM; for inhibition at 30 µM: Compound concentration: 30 μM. The procedure: (§1) The antiproliferative activity of a compound was determined in the following cell lines: MDA-MB-231 (breast cancer), HepG2 (liver cancer), SW480 (colon cancer), B16F10 (malignant melanoma), A431 (epidermoid carcinoma), A549 (lung adenocarcinoma), and HeLa (cervical cancer). MDA-MB-231, HepG2, SW480, B16F10, and A431 cells were cultured in Dulbecco's modified Eagle's medium (DMEM) containing 10% fetal bovine serum (FBS). HeLa cells were cultured in MEM/EBSS (MEM) containing 10% FBS. A549 cells were maintained in Kaighn's modification of Ham's F-12 medium containing 10% FBS. A Cell Counting Kit-8 (CCK-8) was used to measure the cell viability of different cells following treatment with the compound.
(§2) Briefly cells were seeded in a 96-well plate at a density of 2,000-5,000 cells/well. Following attachment, the cells were treated with the compound in media at a compound concentration of 3.3 μM, 10 μM, or 30 μM. After the cells were incubated at 37° C. for 72 h, a CCK-8 solution (10 μL) was added to each well. After incubation at 37° C. for 4 h, the absorbance value of each well was determined using a multi-well plate reader at 450 nm. The wells treated with DMSO were taken as a vehicle control. Data were also obtained similarly for all the replicates and the percentage of cell viability was determined with respect to the DMSO-treated cells. The results are summarized in Tables 2-4, wherein A represents no less than […] of cell growth; B represents no less than 30% but less than 50% inhibition of cell growth; and C represents less than 30% inhibition of cell growth.

The subject of test [2] is B16F10 (malignant melanoma). Description: Antiproliferative activity (CCK-8 cell viability), B16F10. The following applies: Mus musculus, 72 h, read-out: Antiproliferative activity in cancerous cells, B16F10 (inhibition of cell growth); for inhibition at 3.3 µM: B16-F10, Compound concentration: 3.3 μM; for inhibition at 10 µM: B16-F10, Compound concentration: 10 μM; for inhibition at 30 µM: B16-F10, Compound concentration: 30 μM. The procedure:
as §1, §2

For test [3], the system named is A549 (lung adenocarcinoma). In words: Antiproliferative activity (CCK-8 cell viability), A549. The note with it: Homo sapiens, 72 h, read-out: Antiproliferative activity in cancerous cells, A549 (inhibition of cell growth); for inhibition at 3.3 µM: Compound concentration: 3.3 μM; for inhibition at 10 µM: Compound concentration: 10 μM; for inhibition at 30 µM: Compound concentration: 30 μM. On the procedure:
as §1, §2

Test [4] concerns A431 (epidermoid carcinoma). In words: Antiproliferative activity (CCK-8 cell viability), A431. The note with it: Homo sapiens, 72 h, read-out: Antiproliferative activity in cancerous cells, A431 (inhibition of cell growth); for inhibition at 3.3 µM: A-431, Compound concentration: 3.3 μM; for inhibition at 10 µM: A-431, Compound concentration: 10 μM; for inhibition at 30 µM: A-431, Compound concentration: 30 μM. On the procedure: as §1, §2

In the next test the test system is HeLa (cervical cancer). In words: Antiproliferative activity (CCK-8 cell viability), HeLa. The note with it: Homo sapiens, 72 h, read-out: Antiproliferative activity in cancerous cells, HELA (inhibition of cell growth); for inhibition at 3.3 µM: Compound concentration: 3.3 μM; for inhibition at 10 µM: Compound concentration: 10 μM; for inhibition at 30 µM: Compound concentration: 30 μM. The procedure: as §1, §2

For another test, the system named is SW480 (colon cancer). Description: Antiproliferative activity (CCK-8 cell viability), SW480. The note with it: Homo sapiens, 72 h, read-out: Antiproliferative activity in cancerous cells, SW480 (inhibition of cell growth); for inhibition at 3.3 µM: Compound concentration: 3.3 μM; for inhibition at 10 µM: Compound concentration: 10 μM; for inhibition at 30 µM: Compound concentration: 30 μM. On the procedure: as §1, §2

In a further test the test system is HepG2 (liver cancer). Description: Antiproliferative activity (CCK-8 cell viability), HepG2. The note with it: Homo sapiens, 72 h, read-out: Antiproliferative activity in cancerous cells, HepG2 (inhibition of cell growth); for inhibition at 3.3 µM: Compound concentration: 3.3 μM; for inhibition at 10 µM: Compound concentration: 10 μM; for inhibition at 30 µM: Compound concentration: 30 μM. The procedure:
as §1, §2

Broadly, the inhibition is the drop in the measured response relative to a control, in per cent. For the compound `CC1=C(CC(=O)O)c2cc(F)ccc2/C1=C\c1ccc(Oc2ccc(Cl)cc2)cc1Oc1ccc(Cl)cc1` [C79, (Z)-2-(1-(2,4-Bis(4-chlorophenoxy)benzylidene)-5-fluoro-2-methyl-1H-inden-3-yl)acetic acid], the inhibition at 3.3 µM (in test [1]; in test [2]; in test [3]; in test [4]; in the test on HeLa (cervical cancer); in the test with SW480 (colon cancer)) was no less than 50% in each case. The inhibition at 3.3 µM in the test on HepG2 (liver cancer) was no less than 50%. Further, the inhibition at 10 µM (in test [1]; in test [2]; in test [3]; in test [4]; with HeLa (cervical cancer); with SW480 (colon cancer)) was no less than 50% in each case. Also, in the test with HepG2 (liver cancer), the inhibition at 10 µM was no less than 50%.
For the compound `CC1=C(CC(=O)O)c2cc(F)ccc2/C1=C\c1ccc(COCc2ccccc2)cc1` [B104, (Z)-2-(1-(4-((Benzyloxy)methyl)benzylidene)-5-fluoro-2-methyl-1H-inden-3-yl)-acetic acid], the inhibition at 3.3 µM in test [1] was 30 to 50%; in test [2], no less than 50%; in test [3] it was 30 to 50%; in test [4] it was no less than 50%; with HeLa (cervical cancer), no less than 50%; with SW480 (colon cancer), no less than 50%. Besides, the inhibition at 3.3 µM in the test with HepG2 (liver cancer) was less than 30%. Besides, the inhibition at 10 µM in test [1] was no less than 50%; in test [2], no less than 50%; in test [3], 30 to 50%; in test [4], no less than 50%; in the test on HeLa (cervical cancer), no less than 50%; in the test on SW480 (colon cancer), no less than 50%. Moreover, the inhibition at 10 µM in the test on HepG2 (liver cancer) is no less than 50%.
For `CC1=C(CC(=O)O)c2cc(F)ccc2/C1=C\c1ccc(Cc2cc3ccccc3s2)cc1` [C312, (Z)-2-(1-(4-(Benzo[b]thiophen-2-ylmethyl)benzylidene)-5-fluoro-2-methyl-1H-inden-3-yl)acetic acid], the inhibition at 3.3 µM in test [1] is 30 to 50%; in test [2], no less than 50%; in test [3] it was less than 30%; in test [4] it was no less than 50%; in the test with HeLa (cervical cancer) it was no less than 50%; in the test on SW480 (colon cancer) it was no less than 50%. For the same compound, in the test on HepG2 (liver cancer), the inhibition at 3.3 µM is no less than 50%. The inhibition at 10 µM (in test [1]; in test [2]; in test [3]; in test [4]; with HeLa (cervical cancer); in the test with SW480 (colon cancer)) was no less than 50% throughout. Besides, in the test on HepG2 (liver cancer), the inhibition at 10 µM was no less than 50%. Besides, the inhibition at 30 µM (in test [1]; in test [2]; in test [3]; in test [4]; with HeLa (cervical cancer); with SW480 (colon cancer)) was no less than 50% throughout. In the test with HepG2 (liver cancer), the inhibition at 30 µM is no less than 50%.
For `CC1=C(CC(=O)O)c2cc(F)ccc2/C1=C\c1ccc(-c2ccc(Cl)cc2)cc1` [D13, (Z)-2-(1-((4′-Chloro-[1,1′-biphenyl]-4-yl)methylene)-5-fluoro-2-methyl-1H-inden-3-yl)acetic acid], the inhibition at 3.3 µM was less than 30% in test [1]; no less than 50% in test [2]; less than 30% in test [3]; less than 30% in test [4]; less than 30% in the test with HeLa (cervical cancer); 30 to 50% in the test with SW480 (colon cancer). Moreover, the inhibition at 3.3 µM in the test with HepG2 (liver cancer) is less than 30%. Moreover, the inhibition at 10 µM in test [1] was 30 to 50%; in test [2], no less than 50%; in test [3] it was less than 30%; in test [4] it was 30 to 50%; in the test on HeLa (cervical cancer), no less than 50%; in the test with SW480 (colon cancer), 30 to 50%. For the same compound, the inhibition at 10 µM in the test on HepG2 (liver cancer) is less than 30%. For the same compound, the inhibition at 30 µM in test [1] is no less than 50%; in test [2] it was no less than 50%; in test [3], 30 to 50%; in test [4], 30 to 50%; in the test on HeLa (cervical cancer), no less than 50%; with SW480 (colon cancer) it was 30 to 50%. Moreover, the inhibition at 30 µM with HepG2 (liver cancer) was less than 30%.
